The text below walks through data of patent US11999746B2, “Compounds” (GlaxoSmithKline Intellectual Property Development Limited, priority 2014, dated 2024).

SMILES strings stand for the structures. Some results are limits rather than exact numbers.

The target of assay [1] is T1, recombinant human Lp-PLA2 (Homo sapiens, UniProt Q13093).
T1 sequence (Q13093 22-441): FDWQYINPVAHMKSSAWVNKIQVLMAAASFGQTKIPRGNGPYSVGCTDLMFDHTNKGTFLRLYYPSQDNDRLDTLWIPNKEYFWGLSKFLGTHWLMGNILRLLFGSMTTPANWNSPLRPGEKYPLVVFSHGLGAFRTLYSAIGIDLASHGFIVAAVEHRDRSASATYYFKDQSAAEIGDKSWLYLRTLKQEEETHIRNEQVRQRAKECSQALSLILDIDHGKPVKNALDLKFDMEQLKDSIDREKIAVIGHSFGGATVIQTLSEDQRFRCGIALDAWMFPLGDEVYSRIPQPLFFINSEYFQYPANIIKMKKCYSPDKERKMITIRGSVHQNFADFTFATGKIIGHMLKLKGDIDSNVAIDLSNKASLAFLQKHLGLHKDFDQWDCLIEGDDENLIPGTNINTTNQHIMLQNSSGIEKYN
The assay can be described thus: (1a) PED6 assay, recombinant human Lp-PLA2 (rhLp-PLA2). It counts as biochemical. To be noted: Examples 1-167 and 413-430 were tested here, one experiment or average of multiple experiments, read-out: rhLp-PLA2 (pIC50) (converted). In short, it runs like this:
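PED6 (2 μM final after 1:1 addition of 4 μM stock) cleavage by rhLp-PLA2 (4 nM working solution) in 50 mM HEPES pH 7.4, 150 mM NaCl, 1 mM CHAPS; compounds preincubated with enzyme 30 minutes, reaction 20 min at room temperature. Fluorescence at ex 480/em 540; pIC50 from curve fit.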

The next assay addresses T2, Lp-PLA2 in human plasma (Homo sapiens, UniProt Q13093).
T2 construct: from tissue; host or cells: pooled human plasma
T2 sequence (Q13093 22-441): T1 sequence (Q13093 22-441)
Nature of the assay: (3a) Lp-PLA2 human plasma Thio-PAF assay. Format: biochemical. To be noted: (3a) Thio-PAF assay, pooled human plasma; Examples 1-265 and 413-430 were tested here; read-out: pIC50 in the Lp-PLA2 human plasma assay (converted). The method, boiled down: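 Endogenous Lp-PLA2 activity in frozen pooled human plasma measured as thiol release from 2-thio-PAF, detected by CPM fluorescence (ex 380/em 485). Compound preincubation 30 min; 2-min reaction in HEPES pH 7.4 buffer with NEM, stopped with 5% TFA, read 40 min later at room temperature; values as pIC50.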

`O=c1nc(OCc2ccc(Oc3cnc(C(F)(F)F)nc3)c(F)c2)cc2n1CC1CCCCN21` (stereo not drawn) [Example E43, 3-((3-fluoro-4-((2-(trifluoromethyl)pyrimidin-5-yl)oxy)benzyl)oxy)-6,7,8,9,9a,10-hexahydro-1H-pyrido[1′,2′:3,4]imidazo[1,2-c]pyrimidin-1-one]: the IC50 (in assay [1]; at Lp-PLA2 in human plasma) was at most 100 nM in each case.
Regarding `O=c1nc(OCc2ccc(Oc3cnc(C(F)(F)F)nc3)c(F)c2)cc2n1C[C@@H]1CCCN21` [Example E72, (S)-3-((3-fluoro-4-((2-(trifluoromethyl)pyrimidin-5-yl)oxy)benzyl)oxy)-7,8,8a, 9-tetra hydropyrrolo[1′,2′:3,4]imidazo[1,2-c]pyrimidin-1(6H)-one], the results for the IC50 (in assay [1]; at Lp-PLA2 in human plasma) were at most 100 nM and at most 10000 nM, respectively.
In the same order, the values of `O=c1nc(OCc2cc(F)c(F)c(Cl)c2)cc2n1CC1CCCCN21` (stereo not drawn) [Example E16, 3-((3-Chloro-4,5-difluorobenzyl)oxy)-6,7,8,9,9a,10-hexahydro-1H-pyrido[1′,2′:3,4] imidazo[1,2-c]pyrimidin-1-one] are at most 100 nM and at most 10000 nM.
In the same order, the values of `O=c1nc(OCc2cc(F)cc(F)c2)cc2n1CC1CCCCN21` (stereo not drawn) [Example E3, 3-((3,5-Difluorobenzyl)oxy)-6,7,8,9,9a,10-hexahydro-1H-pyrido[1′,2′:3,4]imidazo-[1,2-c] pyrimidin-1-one] are at most 100 nM and at most 10000 nM.
Turning to `O=c1nc(OCc2cc(F)c(Oc3cccc(C(F)(F)F)c3)c(F)c2)cc2n1CC1CCCN21` (stereo not drawn) [Example E81, 3-((3,5-difluoro-4-(3-(trifluoromethyl)phenoxy)benzyl)oxy)-7,8,8a,9-tetrahydropyrrolo[1′,2′:3, 4]imidazo[1,2-c]pyrimidin-1(6H)-one], the IC50 in assay [1] is at most 1 nM; on Lp-PLA2 in human plasma, at most 100 nM.
For `O=c1nc(OCc2ccc(Cl)c(F)c2)cc2n1C[C@H]1COCN21` [Example E145, (S)-6-((4-chloro-3-fluorobenzyl)oxy)-10,10a-dihydro-1H-oxazolo[3′,4′:3,4]imidazo[1,2-c] pyrimidin-8(3H)-one], the IC50 in assay [1] is at most 100 nM; at Lp-PLA2 in human plasma, at most 10000 nM.
In the same order, the values of `Cc1ccc(Oc2c(F)cc(COc3cc4n(c(=O)n3)C[C@H]3COCCN43)cc2F)cn1` [Example E125, (S)-7-((3,5-difluoro-4-((6-methylpyridin-3-yl)oxy)benzyl)oxy)-3,4,11,11atetrahydropyrimido[6′,1′:2,3]imidazo[5,1-c][1,4]oxazin-9(1H)-one] are 0.0631 nM and at most 100 nM.
In the same order, the values of `CN1c2cc(OCc3cccc(F)c3F)nc(=O)n2CC12CCCC2` [Example 426, 7′4(2,3-difluorobenzyhoxy)-1-methyl-1H-spiro[cyclopentane-1,2′-imidazo[1,2-c]pyrimidin]-5′(3′H)-one] are at most 100 nM and at most 100 nM.
In the same order, the values of `CN1c2cc(OCc3cccc(F)c3)nc(=O)n2CC12CCCC2` [Example 418] are at most 100 nM and at most 100 nM.
With `O=c1nc(OCc2cc(F)c(OC3CCCC(F)(F)C3)c(F)c2)cc2n1CC1CCCN21` (stereo not drawn) [Example E92, 3-((4-((3,3-difluorocyclohexyl)oxy)-3,5-difluorobenzyl)oxy)-7,8,8a,9-tetrahydropyrrolo[1′,2′:3,4]imidazo[1,2-c]pyrimidin-1(6H)-one], the IC50 in assay [1] was at most 100 nM; at Lp-PLA2 in human plasma, at most 10000 nM.
In the same order, the values of `O=c1nc(OCc2cc(F)c(Oc3ccnc(C(F)(F)F)c3)c(F)c2)cc2n1CC1OCCCN21` (single isomer, unassigned) [Example E163, 7-((3,5-difluoro-4-((2-(trifluoromethyl)pyridin-4-yl)oxy)benzyl)oxy)-3,4,11,11a-tetrahydropyrimido[6′,1′:2,3]imidazo[5,1-b][1,3]oxazin-9(2H)-one] are at most 100 nM and at most 10000 nM.
In the same order, the values of `Cn1cc(Oc2c(F)cc(COc3cc4n(c(=O)n3)C[C@@H]3CCCCN43)cc2F)cn1` [Example E50, (S)-3-((3,5-difluoro-4-((1-methyl-1H-pyrazol-4-yl)oxy)benzyl)oxy)-6,7,8,9,9a,10-hexahydro-1H-pyrido[1′,2′:3,4]imidazo[1,2-c]pyrimidin-1-one] are at most 100 nM and at most 10000 nM.
In the same order, the values of `O=c1nc(OCc2ccc(Oc3ccnc(C(F)(F)F)c3)c(F)c2)cc2n1CC1CCCCN21` (stereo not drawn) [Example E44, 3-((3-Fluoro-4-((2-(trifluoromethyl)pyridin-4-yl)oxy)benzyl)oxy)-6,7,8,9,9a,10-hexahydro-1H-pyrido[1′,2′:3,4]imidazo[1,2-c]pyrimidin-1-one] are at most 1 nM and at most 100 nM.
As for `O=c1nc(OCc2cccc(F)c2F)cc2n1C[C@H]1CCCN21` [Example E101, (R)-3-((2,3-difluorobenzyl)oxy)-7,8,8a, 9-tetrahydropyrrolo[1′, 2′:3, 4]imidazo[1,2-c] pyrimidin-1(6H)-one], the IC50 is at most 100 nM in assay [1] and at most 10000 nM on Lp-PLA2 in human plasma.
`N#Cc1cc(COc2cc3n(c(=O)n2)CC2CCCCN32)ccc1Oc1cccc(C(F)(F)F)c1` (stereo not drawn) [Example E12, 5-(((1-Oxo-6,7,8,9,9a,10-hexahydro-1H-pyrido[1′,2′:3,4]imidazo[1,2-c]pyrimidin-3-yl)oxy)methyl)-2-(3-(trifluoromethyl)phenoxy)benzonitrile]: the IC50 is at most 1 nM in assay [1] and at most 100 nM at Lp-PLA2 in human plasma.
In the same order, the values of `O=c1nc(OCc2cc(F)c(OC3CCCC(F)(F)C3)c(F)c2)cc2n1C[C@@H]1CCCN21` (stereo partly drawn) [Example E93, (S)-3-((4-((3,3-difluorocyclohexyl)oxy)-3,5-difluorobenzyl)oxy)-7,8,8a,9-tetrahydropyrrolo[1′,2′:3,4]imidazo[1,2-c]pyrimidin-1(6H)-one] are at most 100 nM and at most 10000 nM.
On to `Cc1ncc(Oc2c(F)cc(COc3cc4n(c(=O)n3)C[C@@H]3COCN43)cc2F)cn1` [Example E159, (R)-6-((3,5-difluoro-4-((2-methylpyrimidin-5-yl)oxy)benzyl)oxy)-10,10a-dihydro-1H-oxazolo[3′,4′:3,4]imidazo[1,2-c]pyrimidin-8(3H)-one], for which the IC50 in assay [1] is at most 100 nM; at Lp-PLA2 in human plasma, at most 10000 nM.
In the same order, the values of `O=c1nc(OCc2cc(F)c(Oc3cnc(C(F)(F)F)nc3)c(F)c2)cc2n1CC1COCCN21` (stereo not drawn) [Example E110, 7-((3,5-Difluoro-4-((2-(trifluoromethyl)pyrimidin-5-yl)oxy)benzyl)oxy)-3,4,11,11a-tetra hydropyrimido[6′,1′:2,3]imidazo[5,1-c][1,4]oxazin-9(1H)-one] are 0.501 nM and at most 100 nM.
`O=c1nc(OCc2cccc(F)c2F)cc2n1C[C@H]1CCCCN21` [Example E56, (R)-3-((2,3-Difluorobenzyl)oxy)-6,7,8,9,9a,10-hexahydro-1H-pyrido[1′,2′:3,4]imidazo[1,2-c] pyrimidin-1-one]: the IC50 in assay [1] is at most 100 nM; at Lp-PLA2 in human plasma, at most 10000 nM.
For the compound `O=c1nc(OCc2cc(F)cc(F)c2)cc2n1C[C@@H]1CCCCN21` [Example E35, (S)-3-((3,5-Difluorobenzyl)oxy)-6,7,8,9,9a,10-hexahydro-1H-pyrido[1′,2′:3,4]imidazo[1,2-c]pyrimidin-1-one], the results for the IC50 (in assay [1]; on Lp-PLA2 in human plasma) were at most 100 nM and at most 10000 nM, respectively.
For the compound `CCn1cc(Oc2c(F)cc(COc3cc4n(c(=O)n3)C[C@@H]3COCN43)cc2F)cn1` [Example E158, (R)-6-((4-((1-ethyl-1H-pyrazol-4-yl)oxy)-3,5-difluorobenzyl)oxy)-10,10a-dihydro-1H-oxazolo[3′,4′:3,4]imidazo[1,2-c]pyrimidin-8(3H)-one], the IC50 in assay [1] was at most 100 nM; on Lp-PLA2 in human plasma it was at most 10000 nM.
In the same order, the values of `O=c1nc(OCc2cccc(F)c2)cc2n1C[C@H]1COCCN21` [Example E128, (S)-7-((3-fluorobenzyl)oxy)-3,4,11,11a-tetrahydropyrimido[6′,1′:2,3]imidazo[5,1-c][1,4] oxazin-9(1H)-one] are 10 nM and at most 100 nM.
In the same order, the values of `N#Cc1cc(COc2cc3n(c(=O)n2)CC2CCCCN32)ccc1Oc1ccc(F)c(F)c1` (stereo not drawn) [Example E19, 2-(3,4-Difluorophenoxy)-5-(((1-oxo-6,7,8,9,9a,10-hexahydro-1H-pyrido[1′,2′:3,4]imidazo-[1,2-c]pyrimidin-3-yl)oxy)methyl)benzonitrile] are at most 1 nM and at most 100 nM.
For `Cn1cc(Oc2c(F)cc(COc3cc4n(c(=O)n3)C[C@H]3COCN43)cc2F)cn1` [Example E143, (S)-6-((3,5-difluoro-4-((1-methyl-1H-pyrazol-4-yl)oxy)benzyl)oxy)-10,10a-dihydro-1H-oxazolo[3′,4′:3,4]imidazo[1,2-c]pyrimidin-8(3H)-one], the IC50 in assay [1] was at most 100 nM; at Lp-PLA2 in human plasma, at most 10000 nM.
